Key:
Type in all cases: cell-based
hGLP-1R [1] = target: T1, hGLP-1R (Homo sapiens, UniProt P43220); experiment: Functional cAMP activation in the presence of 0.1% casein (no HSA); settings: in the presence of 0.1% casein (no HSA); geometric mean; read-out: Relative cAMP EC50, hGLP-1R;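 note: intracellular cAMP rise after 30 min at 37 °C read by HTRF, normalized between buffer only (0%) and maximal control ligand (100%), four-parameter variable-slope fit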
human GcgR = human GcgR (Homo sapiens, UniProt P47871); experiment: Functional cAMP activity in the presence of 1% HSA; settings: read-out: cAMP Rel EC50, hGcgR
hGIPR [2] = target: T2, hGIPR (Homo sapiens, UniProt P48546); experiment: Functional cAMP activity in the presence of 1% HSA; settings: read-out: cAMP Rel EC50, hGIPR
T2 sequence (P48546 22-466): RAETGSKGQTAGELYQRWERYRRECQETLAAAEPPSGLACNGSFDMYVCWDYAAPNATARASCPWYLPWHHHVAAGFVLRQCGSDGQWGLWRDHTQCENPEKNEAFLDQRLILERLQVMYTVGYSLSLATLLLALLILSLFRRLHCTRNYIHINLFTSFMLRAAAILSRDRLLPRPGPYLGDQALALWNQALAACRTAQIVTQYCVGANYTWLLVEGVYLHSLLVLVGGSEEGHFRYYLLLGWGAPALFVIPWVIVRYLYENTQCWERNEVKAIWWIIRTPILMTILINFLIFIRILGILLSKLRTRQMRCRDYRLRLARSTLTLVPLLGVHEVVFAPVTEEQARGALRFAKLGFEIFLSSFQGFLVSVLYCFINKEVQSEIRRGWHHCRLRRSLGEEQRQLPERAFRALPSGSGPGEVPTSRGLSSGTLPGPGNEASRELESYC

hGcgR = hGcgR (Homo sapiens, UniProt P47871); experiment: Functional cAMP activation in the presence of 0.1% casein (no HSA); settings: in the presence of 0.1% casein (no HSA); geometric mean; read-out: Relative cAMP EC50, hGcgR;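 note: intracellular cAMP rise after 30 min at 37 °C, read by HTRF against a cAMP standard curve, scaled from buffer only (0%) to maximal control ligand response (100%)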
hGIPR [3] = target: T2, hGIPR; experiment: as above; settings: in the presence of 0.1% casein (no HSA); geometric mean; read-out: Relative cAMP EC50, hGIPR
hGLP-1R [4] = target: T1, hGLP-1R; experiment: Functional cAMP activity in the presence of 1% HSA; settings: read-out: cAMP Rel EC50, hGLP-1R
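Throughout, for Relative cAMP EC50, hGIPR: intracellular cAMP rise after 30 min at 37 °C read by HTRF against a standard curve, scaled between buffer alone (0%) and top control ligand concentration (100%), four-parameter fit.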

Chain of human GcgR (P47871 26-477): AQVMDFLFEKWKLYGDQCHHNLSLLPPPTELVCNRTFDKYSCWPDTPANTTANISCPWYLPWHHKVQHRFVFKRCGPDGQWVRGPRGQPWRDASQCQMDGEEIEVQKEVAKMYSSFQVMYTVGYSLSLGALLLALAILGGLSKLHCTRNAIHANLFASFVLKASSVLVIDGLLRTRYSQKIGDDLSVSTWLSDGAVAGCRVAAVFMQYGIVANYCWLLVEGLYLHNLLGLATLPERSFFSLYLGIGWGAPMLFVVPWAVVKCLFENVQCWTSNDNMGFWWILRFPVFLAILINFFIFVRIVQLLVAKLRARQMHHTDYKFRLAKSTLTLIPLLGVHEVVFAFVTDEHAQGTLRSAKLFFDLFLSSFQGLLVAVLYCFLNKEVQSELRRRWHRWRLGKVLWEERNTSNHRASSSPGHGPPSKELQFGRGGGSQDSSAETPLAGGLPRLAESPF
Chain of hGcgR (P47871 26-477): as above
T1 sequence (P43220 24-463): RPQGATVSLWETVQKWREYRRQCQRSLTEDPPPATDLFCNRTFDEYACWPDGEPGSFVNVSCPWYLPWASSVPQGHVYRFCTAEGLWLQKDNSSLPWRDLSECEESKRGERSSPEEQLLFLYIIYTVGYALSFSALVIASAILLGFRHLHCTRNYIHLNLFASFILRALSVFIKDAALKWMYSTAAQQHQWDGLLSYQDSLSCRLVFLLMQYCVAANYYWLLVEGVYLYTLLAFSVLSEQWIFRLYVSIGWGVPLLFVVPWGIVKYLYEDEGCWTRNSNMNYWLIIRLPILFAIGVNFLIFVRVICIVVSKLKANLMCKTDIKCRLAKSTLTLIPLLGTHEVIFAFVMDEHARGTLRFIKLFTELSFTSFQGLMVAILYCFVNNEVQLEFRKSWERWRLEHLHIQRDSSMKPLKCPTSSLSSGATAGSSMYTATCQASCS

CC[C@H](C)[C@H](NC(=O)[C@H](Cc1ccccc1)NC(=O)[C@H](C)NC(=O)C(C)(C)NC(=O)[C@H](CCC(N)=O)NC(=O)[C@H](C)NC(=O)[C@H](CCCCNC(=O)COCCOCCNC(=O)COCCOCCNC(=O)CC[C@H](NC(=O)CCCCCCCCCCCCCCCCCCC(=O)O)C(=O)O)NC(=O)[C@H](CCCCN)NC(=O)[C@H](CC(=O)O)NC(=O)[C@H](CC(C)C)NC(=O)[C@](C)(CC(C)C)NC(=O)[C@H](CCCN)NC(=O)[C@H](CO)NC(=O)[C@H](Cc1ccccc1)NC(=O)[C@H](CC(=O)O)NC(=O)[C@H](CO)NC(=O)[C@@H](NC(=O)[C@H](Cc1ccccc1)NC(=O)[C@@H](NC(=O)CNC(=O)[C@H](CCC(N)=O)NC(=O)C(C)(C)NC(=O)[C@@H](N)Cc1ccc(O)cc1)[C@@H](C)O)[C@@H](C)O)C(=O)N[C@@H](CCC(=O)O)C(=O)N[C@@H](Cc1ccc(O)cc1)C(=O)N[C@@H](CC(C)C)C(=O)N[C@@H](CC(C)C)C(=O)N[C@@H](CCC(=O)O)C(=O)N[C@H](C)C(=O)NCC(=O)N1CCC[C@H]1C(=O)N[C@@H](CO)C(=O)N[C@@H](CO)C(=O)NCC(=O)N[C@@H](C)C(=O)N1CCC[C@H]1C(=O)N1CCC[C@H]1C(=O)N1CCC[C@H]1C(=O)N[C@@H](CO)C(=O)N[C@@H](CCC(=O)O)C(=O)NCC(N)=O [Example 72]
EC50 (hGLP-1R [1]): 1.86 nM | EC50 (human GcgR): 1910 nM | EC50 (hGIPR [2]): 56.7 nM | EC50 (hGcgR): 5.48 nM | EC50 (hGIPR [3]): 0.202 nM | EC50 (hGLP-1R [4]): 683 nM

CC[C@H](C)[C@H](NC(=O)[C@H](Cc1ccccc1)NC(=O)[C@H](C)NC(=O)C(C)(C)NC(=O)[C@H](CCC(N)=O)NC(=O)[C@H](C)NC(=O)[C@H](CCCCNC(=O)COCCOCCNC(=O)CC[C@H](NC(=O)CCCCCCCCCCCCCCCCCCC(=O)O)C(=O)O)NC(=O)[C@H](CCCCN)NC(=O)[C@H](CC(=O)O)NC(=O)[C@H](CC(C)C)NC(=O)[C@](C)(CC(C)C)NC(=O)[C@H](CCCN)NC(=O)[C@H](CO)NC(=O)[C@H](Cc1ccccc1)NC(=O)[C@H](CC(=O)O)NC(=O)[C@H](CO)NC(=O)[C@@H](NC(=O)[C@H](Cc1ccccc1)NC(=O)[C@@H](NC(=O)CNC(=O)[C@H](CCC(N)=O)NC(=O)C(C)(C)NC(=O)[C@@H](N)Cc1ccc(O)cc1)[C@@H](C)O)[C@@H](C)O)C(=O)N[C@@H](CCC(=O)O)C(=O)N[C@@H](Cc1c[nH]c2ccccc12)C(=O)N[C@@H](CC(C)C)C(=O)N[C@@H](CC(C)C)C(=O)N[C@@H](CCC(=O)O)C(=O)NCC(=O)NCC(=O)N1CCC[C@H]1C(=O)N[C@@H](CO)C(=O)N[C@@H](CO)C(=O)NCC(=O)N[C@@H](C)C(=O)N1CCC[C@H]1C(=O)N1CCC[C@H]1C(=O)N1CCC[C@H]1C(=O)N[C@@H](CO)C(=O)NCC(=O)N[C@@H](CCC(=O)O)C(N)=O [Example 100]
EC50 (hGLP-1R [1]): 3.21 nM | EC50 (human GcgR): 2390 nM | EC50 (hGIPR [2]): 77.2 nM | EC50 (hGcgR): 13.1 nM | EC50 (hGIPR [3]): 0.293 nM | EC50 (hGLP-1R [4]): 1190 nM

CC[C@H](C)[C@H](NC(=O)[C@H](Cc1ccccc1)NC(=O)[C@H](C)NC(=O)C(C)(C)NC(=O)[C@H](CCC(N)=O)NC(=O)[C@H](C)NC(=O)[C@H](CCCCNC(=O)COCCOCCNC(=O)CC[C@H](NC(=O)CCCCCCCCCCCCCCCCCCC(=O)O)C(=O)O)NC(=O)[C@H](CCCCN)NC(=O)[C@H](CC(=O)O)NC(=O)[C@H](CC(C)C)NC(=O)[C@](C)(CC(C)C)NC(=O)[C@H](CCCN)NC(=O)[C@H](CO)NC(=O)[C@H](Cc1ccccc1)NC(=O)[C@H](CC(=O)O)NC(=O)[C@H](CO)NC(=O)[C@@H](NC(=O)[C@H](Cc1ccccc1)NC(=O)[C@@H](NC(=O)CNC(=O)[C@H](CCC(N)=O)NC(=O)C(C)(C)NC(=O)[C@@H](N)Cc1ccc(O)cc1)[C@@H](C)O)[C@@H](C)O)C(=O)N[C@@H](CCC(=O)O)C(=O)N[C@@H](Cc1c[nH]c2ccccc12)C(=O)N[C@@H](CC(C)C)C(=O)N[C@@H](CC(C)C)C(=O)N[C@@H](CCC(=O)O)C(=O)NCC(=O)NCC(=O)N1CCC[C@H]1C(=O)N[C@@H](CO)C(=O)N[C@@H](CO)C(=O)NCC(=O)N[C@@H](C)C(=O)N1CCC[C@H]1C(=O)N1CCC[C@H]1C(=O)N1C[C@H](O)C[C@H]1C(=O)N[C@@H](CO)C(=O)NCC(=O)N[C@@H](CCC(=O)O)C(N)=O [Example 105]
EC50 (hGLP-1R [1]): 2.86 nM | EC50 (human GcgR): 2790 nM | EC50 (hGIPR [2]): 72.5 nM | EC50 (hGcgR): 12.5 nM | EC50 (hGIPR [3]): 0.269 nM | EC50 (hGLP-1R [4]): 768 nM

Source: patent publication US20240270821A1, “GIP/GLP1/GCG TRI-RECEPTOR AGONISTS AND USES THEREOF” (priority 2023, published 2024)
